target: T1, recombinant human mPGES-1 (Homo sapiens, UniProt O14684); assay: mPGES-1 inhibition test (microsomes, PGH2 substrate, HTRF detection of PGE2); format: biochemical; conditions: inhibition of mPGES-1 at 10 μM
T1 construct: made in house; host or cells: Rosetta E. coli (microsomal/membrane fraction)
T1 sequence (O14684 1-152): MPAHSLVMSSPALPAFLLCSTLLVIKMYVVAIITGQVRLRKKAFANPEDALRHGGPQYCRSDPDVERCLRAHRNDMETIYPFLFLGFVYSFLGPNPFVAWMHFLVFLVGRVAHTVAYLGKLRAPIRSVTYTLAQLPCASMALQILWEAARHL
Outline: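 PGE2 formed from PGH2 in one minute by E. coli-expressed microsomal enzyme (pH 7.4, 2.5 mM GSH) was measured by competitive HTRF against a synthetic PGE2 standard curve. Compounds were preincubated 25 min at room temperature.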

Question: With `Cc1cc(NC(=O)c2ccc3[nH]c(Nc4c(Cl)cccc4Cl)nc3c2)ncc1F` [Example 189, 2-(2,6-Dichloro-phenylamino)-1H-benzimidazole-5-carboxylic acid (5-fluoro-4-methyl-pyridin-2-yl)-amide] as the compound, how does the inhibition at 10 µM read?
Answer: Its inhibition at 10 µM is 94%.

Question: For `O=C(Nc1ncccc1C(F)(F)F)c1ccc2[nH]c(Nc3c(Cl)cccc3Cl)nc2c1` [Example 190, 2-(2,6-Dichloro-phenylamino)-1H-benzimidazole-5-carboxylic acid (3-trifluoromethyl-pyridin-2-yl)-amide], which inhibition at 10 µM is on record?
Answer: The inhibition at 10 µM was 75%.

Question: Which inhibition at 10 µM does the source give for `O=C(Nc1ccc(C(F)(F)F)cn1)c1ccc2[nH]c(Nc3c(Cl)cccc3Cl)nc2c1` [Example 191, 2-(2,6-Dichloro-phenylamino)-1H-benzimidazole-5-carboxylic acid (5-trifluoromethyl-pyridin-2-yl)-amide] here?
Answer: Its inhibition at 10 µM is 99%.

Question: For `O=C(Nc1ccc(Br)cn1)c1ccc2nc(Nc3c(F)cccc3Cl)[nH]c2c1` [Example 192, 2-(2-Chloro-6-fluoro-phenylamino)-3H-benzimidazole-5-carboxylic acid (5-bromo-pyridin-2-yl)-amide], which inhibition at 10 µM is on record?
Answer: The inhibition at 10 µM was 100%.

Question: With `Cc1cc(NC(=O)c2ccc3nc(Nc4c(Cl)cccc4Cl)[nH]c3c2)ccn1` [Example 193, 2-(2,6-Dichloro-phenylamino)-3H-benzimidazole-5-carboxylic acid (2-methyl-pyridin-4-yl)-amide] as the compound, how does the inhibition at 10 µM read?
Answer: The inhibition at 10 µM was 99%.

Question: How did the inhibition at 10 µM turn out when `COc1cccc(NC(=O)c2ccc3nc(Nc4c(Cl)cccc4Cl)[nH]c3c2)n1` [Example 194, 2-(2,6-Dichloro-phenylamino)-3H-benzimidazole-5-carboxylic acid (6-methoxy-pyridin-2-yl)-amide] was run?
Answer: Its inhibition at 10 µM is 98%.

Question: How did the inhibition at 10 µM turn out when `COc1ccc(NC(=O)c2ccc3nc(Nc4c(Cl)cccc4Cl)[nH]c3c2)nc1` [Example 195, 2-(2,6-Dichloro-phenylamino)-3H-benzimidazole-5-carboxylic acid (5-methoxy-pyridin-2-yl)-amide] was run?
Answer: Its inhibition at 10 µM is 92%.

Question: How did the inhibition at 10 µM turn out when `COc1cc2nc(Nc3c(Cl)cccc3Cl)[nH]c2cc1C(=O)Nc1ccc(Cl)c(F)c1` [Example 197] was run?
Answer: Its inhibition at 10 µM is 100%.

Question: For `Cc1cc(NC(=O)c2ccc3nc(Nc4c(Cl)cccc4Cl)[nH]c3c2)cc(Cl)n1` [Example 198, 2-(2,6-Dichloro-phenylamino)-3H-benzimidazole-5-carboxylic acid (2-chloro-6-methyl-pyridin-4-yl)-amide], which inhibition at 10 µM is on record?
Answer: Its inhibition at 10 µM is 100%.

Question: How did the inhibition at 10 µM turn out when `COc1cc2nc(Nc3c(Cl)cccc3Cl)[nH]c2cc1C(=O)NC1CCCCC1` [Example 199, N-(Cyclohexyl)-2-(2,6-dichlorophenylamino)-6-methoxy-1H-benzimidazole-5-carboxamide] was run?
Answer: Its inhibition at 10 µM is 100%.

Question: Which inhibition at 10 µM does the source give for `COc1cc2nc(Nc3c(Cl)cccc3Cl)[nH]c2cc1C(=O)NCc1ccccc1C(F)(F)F` [Example 200] here?
Answer: Its inhibition at 10 µM is 98%.

Question: How did the inhibition at 10 µM turn out when `Cc1cc(C)nc(NC(=O)c2ccc3c(c2)nc(Nc2c(Cl)cccc2Cl)n3C)c1` [Example 201, 2-(2,6-Dichloro-phenylamino)-1-methyl-1H-benzimidazole-5-carboxylic acid (4,6-dimethyl-pyridin-2-yl)-amide] was run?
Answer: Its inhibition at 10 µM is 100%.

Question: `Cc1cc(NC(=O)c2ccc3c(c2)nc(Nc2c(Cl)cccc2Cl)n3C)ncc1Cl` [Example 202, 2-(2,6-Dichloro-phenylamino)-1-methyl-1H-benzimidazole-5-carboxylic acid (5-chloro-4-methyl-pyridin-2-yl)-amide] was tested. Which inhibition at 10 µM did it give?
Answer: Its inhibition at 10 µM is 100%.

Question: For `Cn1c(Nc2c(Cl)cccc2Cl)nc2cc(C(=O)Nc3cc(C(F)(F)F)ccn3)ccc21` [Example 203, 2-(2,6-Dichloro-phenylamino)-1-methyl-1H-benzimidazole-5-carboxylic acid (4-trifluoromethyl-pyridin-2-yl)-amide], which inhibition at 10 µM is on record?
Answer: The inhibition at 10 µM was 100%.

Question: How did the inhibition at 10 µM turn out when `CS(=O)(=O)NCCn1c(Nc2c(Cl)cccc2Cl)nc2cc(C(=O)Nc3cc(Cl)ccn3)ccc21` [Example 205, 2-(2,6-Dichloro-phenylamino)-1-(2-methanesulfonylamino-ethyl)-1H-benzimidazole-5-carboxylic acid (4-chloro-pyridin-2-yl)-amide] was run?
Answer: The inhibition at 10 µM was 97%.

Reference: patent US8916599B2, “1H-benz imidazole-5-carboxamides as anti-inflammatory agents” (Orexo AB, priority 2008, dated 2014)
